In patent publication US11292759B2, “Hydroxycitric acid metal heterocyclic compounds with covalent characteristics” (GLYKON TECHNOLOGIES GROUP, LLC, priority 2018, dated 2022):

Tests used:
[1] = molecular target: T1, ATP citrate lyase (EC 4.1.3.8) (Homo sapiens, UniProt P53396); details: cited from earlier work
T1 sequence (P53396 1-1101): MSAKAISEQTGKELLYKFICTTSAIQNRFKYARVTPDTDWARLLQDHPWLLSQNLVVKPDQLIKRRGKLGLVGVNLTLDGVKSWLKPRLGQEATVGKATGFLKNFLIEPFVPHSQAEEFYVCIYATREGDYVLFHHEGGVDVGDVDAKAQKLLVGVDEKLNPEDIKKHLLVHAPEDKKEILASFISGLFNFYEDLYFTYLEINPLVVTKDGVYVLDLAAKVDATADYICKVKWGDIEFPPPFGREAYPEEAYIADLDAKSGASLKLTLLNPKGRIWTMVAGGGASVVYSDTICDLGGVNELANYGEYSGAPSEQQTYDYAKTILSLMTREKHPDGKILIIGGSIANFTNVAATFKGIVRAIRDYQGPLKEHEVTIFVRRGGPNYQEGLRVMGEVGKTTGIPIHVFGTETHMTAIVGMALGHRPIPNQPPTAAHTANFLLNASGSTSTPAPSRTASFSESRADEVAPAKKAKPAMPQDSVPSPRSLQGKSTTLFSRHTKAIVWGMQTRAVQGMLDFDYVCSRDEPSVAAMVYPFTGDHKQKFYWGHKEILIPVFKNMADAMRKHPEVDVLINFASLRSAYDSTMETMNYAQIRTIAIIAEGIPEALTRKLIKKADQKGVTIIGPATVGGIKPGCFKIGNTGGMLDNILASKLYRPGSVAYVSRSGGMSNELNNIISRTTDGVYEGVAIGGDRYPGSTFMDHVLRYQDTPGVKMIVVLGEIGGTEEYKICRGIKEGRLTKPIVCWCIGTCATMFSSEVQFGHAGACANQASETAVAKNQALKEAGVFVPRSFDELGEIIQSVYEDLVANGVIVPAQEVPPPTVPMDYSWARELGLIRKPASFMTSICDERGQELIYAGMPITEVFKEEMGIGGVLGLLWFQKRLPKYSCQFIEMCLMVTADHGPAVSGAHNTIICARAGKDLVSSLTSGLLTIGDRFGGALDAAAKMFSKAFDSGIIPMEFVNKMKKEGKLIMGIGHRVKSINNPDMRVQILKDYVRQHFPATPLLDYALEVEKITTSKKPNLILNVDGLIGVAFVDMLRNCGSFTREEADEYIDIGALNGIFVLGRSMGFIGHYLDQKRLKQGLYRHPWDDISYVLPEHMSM

[2] = tested on: de novo lipogenesis (DNL); test: De novo lipogenesis in rats (literature); type: in vivo; details: for a 70 kg human being
Text: Dosages of various HCA compositions found to be effective are quite large, indeed beyond the normal range for pharmaceutical products, with efficacy that is highly variable. […] A later study found a significant, yet limited effect after 7 days of a diet designed specifically to induce de novo lipogenesis in humans. (Physiol Behav. 2006 Jul. 30; 88(4-5): 371-81). See also, Nutr Metab (Lond). 2005 Sep. 13; 2:23.

[3] = tested on: de novo lipogenesis (DNL); details: obese subjects, 6 g HCA/day for 5 days; cited from earlier work
[4] = Conductivity of solutions (HACH Conductivity/TDS meter); type: physicochemical; details: Concentration 0.3 mmol/l in demineralized water, no additive
Text: The structure of the subject compounds (e.g., as described herein) can be deduced using a conductance meter to observe the extent of dissociate of the first and/or second metals from the compounds. In an experiment described below equimolar samples and comparative electrolyte conductance to K-acetate solution as a standard, data may be obtained which is characteristic of electrolyte binary conductants. […] The KMgHCA solution in water may have a pH 8-10 depending on the concentration. Under this condition, the heterocyclic anion formed will tend toward a stable form rather than an ionizable one.
Several experiments investigating the electrical conductivities of solutions of KMgHCA, KZnHCA and KMnHCA are performed. The equipment used is HACH Conductivity/TDS meter, P/N=4460-00.
Materials: KMgHCA.4H2O, KZnHCA.2H2O, KMnHCA.2H2O are prepared using methods described herein. KC2H3O2 and […] was obtained from Merck. H2O used was demineralized water.
General procedure: All the HCA compounds and Acetate were weighed and placed in a volumetric flask and dissolved with demineralized water to one liter solution and then they were tested the conductivity (EC).

[5] = tested on: Osteoporosis; test: Example 14: comparison of KCaHCA and/or KMgHCA compositions in one subject; type: in vivo, human; details: 200 mg doses, after switch from experiment 1 regimen
Protocol: • Subject: (cited as Example 12, above) • • Problem: Osteoporosis • Treatment: Materials were consumed 3 times a day after meals. • Experiment 1. Blending 150 mg KMgHCA.8H2O+50 mg KCaHCA.3H2O • A 200 mg mixture of KCaHCA (25%) and KMgHCA (75%) prepared according to the subject methods was used. The actual percentage of calcium was (40/338)×25%=2.96%. Since KCaHCA.3H2O was used the percentage of magnesium in the composition was (24/412)×75%=4.37%. Since KMgHCA.8H2O was used, the ratio Ca:Mg=0.15:0.36 in mmol. • Experiment 2. 200 mg KMgHCA.8H2O • Experiment 3.

[6] = tested on: osteoporosis and calcification; test: Example 13: comparison of bimetal regimes in two subjects; type: in vivo, human; parameters: key to Treatment performance: ++: very good performance; +−: good but slight complaint
Protocol: Subject I: a person, 40 kg (cited in Example 11, above)
Subject II: a person; 72 kg
Treatment: A. Mixture 25% KCa HCA+75% KMg HCA bimetals (100-200 mg)
Treatment B: Only KMg HCA but not KCa HCA was used.

[7] = cited from earlier work

Question: With `O=C(O)CC(O)(C(=O)O)C(O)C(=O)O` (single isomer, unassigned; (-)) [(−)-HCA, (−)-hydroxycitric acid] as the compound, how does the “inhibition of ATP citrate lyase” value [1] read?
Answer: Its value is “potent inhibitor”.

Question: With `O=C(O)CC(O)(C(=O)O)C(O)C(=O)O` (stereo not drawn) [HCA, Hydroxycitric acid] as the compound, how does the “effective dose extrapolated from rats” value [2] read?
Answer: Its value is “approximately 4.5 g/day”.

Question: And the “inhibition of DNL / promotion of fatty acid oxidation” value [3]?
Answer: The value was “failed to inhibit DNL or to promote fatty acid oxidation”.

Question: With `CC(=O)[O-].[K+]` [KC2H3O2, K-acetate] as the compound, how does the “E. C (μS/cm)” value [4] read?
Answer: Its value is 56.06 μS/cm.

Question: Which “patient's condition observed during treatment” value [5] does the source give for `O=C([O-])CC(O)(C(=O)[O-])C(O)C(=O)[O-].[K+].[Mg+2]` (stereo not drawn) [KMgHCA] here?
Answer: Its value is “slight difficult to walk”.

Question: What about the Treatment performance ([6]; Patient II (72 kg)) of the same compound?
Answer: The Treatment performance was “+−”.

Question: What about the reduction of symptoms ([6]; Subject II) of the same compound?
Answer: The reduction of symptoms was “partial reduction of symptoms”.

Question: Which “E. C (μS/cm)” value [4] does the source give for `CC(=O)[O-].CC(=O)[O-].O.O.O.O.[Mg+2]` [Mg(CH3COO)2•4H2O] here?
Answer: The value was 32.3 μS/cm.

Question: For `O=C(O)CO` [glycolic acid], which pKa [7] is on record?
Answer: The pKa was “approx. 3.83”.
